Measured values taken from patent publication US4954513A, “Leukotriene antagonists” (SmithKline Beecham Corporation, priority 1988, dated 1990).

Target: T1, leukotriene induced contraction of guinea pig tracheal tissues (Cavia porcellus, UniProt Q2NNR5)
T1 construct: Guinea pig (adult male albino Hartley strain) tracheal spiral strips; from tissue; host or cells: guinea pig (adult male albino Hartley) tracheal spiral strips
T1 sequence (Q2NNR5 1-340): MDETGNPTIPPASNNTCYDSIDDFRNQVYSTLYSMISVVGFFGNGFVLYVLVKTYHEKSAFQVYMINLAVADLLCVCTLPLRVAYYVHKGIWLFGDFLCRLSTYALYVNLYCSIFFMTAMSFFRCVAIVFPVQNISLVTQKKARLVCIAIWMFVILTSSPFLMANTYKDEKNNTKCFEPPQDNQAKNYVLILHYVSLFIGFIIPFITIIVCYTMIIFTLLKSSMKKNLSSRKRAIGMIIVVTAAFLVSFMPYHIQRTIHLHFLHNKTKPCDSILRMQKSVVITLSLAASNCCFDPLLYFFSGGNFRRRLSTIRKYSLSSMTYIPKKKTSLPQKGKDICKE
Experiment: Inhibition of leukotriene (LTD4) induced contraction of guinea pig tracheal spiral strips in vitro
Type: cell-based
Settings: LTD4 concentration-response on guinea pig tracheal strips, 30 min pretreatment with test compound, meclofenamic acid 1uM; EC30 shift; current average data; read-out: -LogKB (converted)
Protocol: The leukotriene antagonist activity of the compounds of this invention is measured by the ability of the compounds to inhibit the leukotriene induced contraction of guinea pig tracheal tissues in vitro. The following methodology was employed: In vitro: Guinea pig (adult male albino Hartley strain) tracheal spiral strips of approximate dimensions 2 to 3 mm cross sectional width and 3.5 cm length were bathed in modified Krebs buffer in jacketed 10 ml tissue bath and continuously aerated with 95% O2 /5% CO2. The tissues were connected via silk suture to force displacement transducers for recording isometric tension. The tissues were equilibrated for 1 hr., pretreated for 15 minutes with meclofenamic acid (1uM) to remove intrinsic prostaglandin responses, and then pretreated for an additional 30 minutes with either the test compound or vehicle control. A cumulative concentration-response curve for LTD4 on triplicate tissues was generated by successive increases in the bath concentration of the LTD4. In order to minimize intertissue variability, the contractions elicited by LTD4 were standardized as a percentage of the maximum response obtained to a reference agonist, carbachol (10uM). Calculations: The averages of the triplicate LTD4 concentration response curves both in the presence and absence of the test compound were plotted on log graph paper. The concentration of LTD4 needed to elicit 30% of the contraction elicited by carbachol was measured and defined as the EC30. The -log KB value for the test compound was determined by the following equations: [formula] […] The antagonist activity of representative compounds of this invention is listed in Table I. The -log KB values were calculated from the above protocol. Where compounds were tested more than once, the -log KB values given here represent the current average data.

| Kd [nM] | SMILES |
| --- | --- |
| 39.8 | O=C(CCSC(c1ccccc1CCCCCCCCc1ccccc1)C(O)C(=O)O)NS(=O)(=O)c1ccccc1 (stereo not drawn) [2-Hydroxy-3-[2-(N-phenylsulfonylcarbamoylethyl)thio]-3-[2-(8 phenyloctyl)phenyl]propanoic acid] |
| 316 | O=C(O)CCSC(CC(=O)NS(=O)(=O)c1ccccc1)c1ccccc1CCCCCCCCc1ccccc1 (stereo not drawn) [Compound 2, N-[3-(Carboxyethylthio)-3-[2-(8-phenyloctyl)phenyl]]propionylbenzenesulfonamide] |
| 398 | CS(=O)(=O)NC(=O)CC(SCCC(=O)O)c1ccccc1CCCCCCCCc1ccccc1 (stereo not drawn) [Compound 3, N-[3-(carboxyethylthio)-3-[2 (8 phenyloctyl)phenyl]propionyl]methanesulfonamide] |
